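Each compound was tested at five concentrations against cells in 96-well plates for 48 hours. At the GI50, growth is halved.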 The source made the active and inactive calls. Rule as the data show it: active = GI50 up to about 1.1 µM and inactive = higher.
How the values were obtained:
Assay in all cases: DTP human tumour cell line panel, 48 h
UACC-62 = tested on: UACC-62
SNB-78 = tested on: SNB-78
SK-MEL-2 = tested on: SK-MEL-2
HCC 2998 = tested on: HCC 2998
UO-31 = tested on: UO-31
COLO 205 = tested on: COLO 205
OVCAR-4 = tested on: OVCAR-4
KM-20L2 = tested on: KM-20L2
SR = tested on: SR
SK-OV-3 = tested on: SK-OV-3
DMS-114 = tested on: DMS-114
LXFL 529 = tested on: LXFL 529
SN12C = tested on: SN12C
DMS-273 = tested on: DMS-273
TK-10 = tested on: TK-10
SF-539 = tested on: SF-539
HOP-92 = tested on: HOP-92
HCT-15 = tested on: HCT-15
K562 = tested on: K562
OVCAR-8 = tested on: OVCAR-8
CAKI-1 = tested on: CAKI-1
RPMI-8226 = tested on: RPMI-8226
Malme-3M = tested on: Malme-3M
SNB-75 = tested on: SNB-75
LOX IMVI = tested on: LOX IMVI
HOP-62 = tested on: HOP-62
MOLT-4 = tested on: MOLT-4
KM12 = tested on: KM12
M14 = tested on: M14
SF-295 = tested on: SF-295
UACC-257 = tested on: UACC-257
RXF 631 = tested on: RXF 631
OVCAR-5 = tested on: OVCAR-5
SNB-19 = tested on: SNB-19
DLD-1 = tested on: DLD-1
A498 = tested on: A498
CCRF-CEM = tested on: CCRF-CEM
NCI-H23 = tested on: NCI-H23
XF498 = tested on: XF498
HCT-116 = tested on: HCT-116
OVCAR-3 = tested on: OVCAR-3
U-251 = tested on: U-251
NCI-H226 = tested on: NCI-H226
SK-MEL-28 = tested on: SK-MEL-28
A549 = tested on: A549
HL-60 = tested on: HL-60
HT-29 = tested on: HT-29
ACHN = tested on: ACHN
EKVX = tested on: EKVX
SK-MEL-5 = tested on: SK-MEL-5
HOP-18 = tested on: HOP-18
SW-620 = tested on: SW-620
NCI-H460 = tested on: NCI-H460
IGROV-1 = tested on: IGROV-1
786-0 = tested on: 786-0
M19-MEL = tested on: M19-MEL
RXF 393 = tested on: RXF 393
SF-268 = tested on: SF-268
NCI-H522 = tested on: NCI-H522

`C=CCn1c(=O)c(C(=O)NC(=O)OCC)cn(C2CCCCC2)c1=O` was tested, and the GI50 (UACC-62) was > 100 µM (inactive), the GI50 (SNB-78) was > 100 µM (inactive) and the GI50 (SK-MEL-2) was > 100 µM (inactive). For the same molecule, the GI50 (HCC 2998) was > 100 µM (inactive), the GI50 (UO-31) was > 100 µM (inactive) and the GI50 (COLO 205) was > 100 µM (inactive). For the same molecule, the GI50 (OVCAR-4) was > 100 µM (inactive), the GI50 (KM-20L2) was > 100 µM (inactive) and the GI50 (SR) was > 100 µM (inactive). For the same molecule, the GI50 (SK-OV-3) was > 100 µM (inactive), the GI50 (DMS-114) was > 100 µM (inactive) and the GI50 (LXFL 529) was > 100 µM (inactive). For the same molecule, the GI50 (SN12C) was > 100 µM (inactive), the GI50 (DMS-273) was > 100 µM (inactive) and the GI50 (TK-10) was > 100 µM (inactive). The GI50 (SF-539) was > 100 µM (inactive), the GI50 (HOP-92) was > 100 µM (inactive) and the GI50 (HCT-15) was over 100 µM. For the same molecule, the GI50 (K562) was > 100 µM (inactive), the GI50 (OVCAR-8) was > 100 µM (inactive) and the GI50 (CAKI-1) was > 100 µM (inactive). The GI50 (RPMI-8226) was > 100 µM (inactive), the GI50 (Malme-3M) was > 100 µM (inactive) and the GI50 (SNB-75) was > 100 µM (inactive). For the same molecule, the GI50 (LOX IMVI) was > 100 µM (inactive), the GI50 (HOP-62) was > 100 µM (inactive) and the GI50 (MOLT-4) was > 100 µM (inactive). For the same molecule, the GI50 (KM12) was > 100 µM (inactive), the GI50 (M14) was > 100 µM (inactive) and the GI50 (SF-295) was > 100 µM (inactive). The GI50 (UACC-257) was > 100 µM (inactive), the GI50 (RXF 631) was > 100 µM (inactive) and the GI50 (OVCAR-5) was > 100 µM (inactive). For the same molecule, the GI50 (SNB-19) was > 100 µM (inactive), the GI50 (DLD-1) was > 100 µM (inactive) and the GI50 (A498) was > 100 µM (inactive). For the same molecule, the GI50 (CCRF-CEM) was > 100 µM (inactive), the GI50 (NCI-H23) was > 100 µM (inactive) and the GI50 (XF498) was > 100 µM (inactive). The GI50 (HCT-116) was > 100 µM (inactive), the GI50 (OVCAR-3) was > 100 µM (inactive) and the GI50 (U-251) was > 100 µM (inactive). For the same molecule, the GI50 (NCI-H226) was > 100 µM (inactive), the GI50 (SK-MEL-28) was > 100 µM (inactive) and the GI50 (A549) was > 100 µM (inactive). For the same molecule, the GI50 (HL-60) was > 100 µM (inactive), the GI50 (HT-29) was > 100 µM (inactive) and the GI50 (ACHN) was > 100 µM (inactive). For the same molecule, the GI50 (EKVX) was > 100 µM (inactive), the GI50 (SK-MEL-5) was > 100 µM (inactive) and the GI50 (HOP-18) was > 100 µM (inactive). For the same molecule, the GI50 (SW-620) was > 100 µM (inactive), the GI50 (NCI-H460) was > 100 µM (inactive) and the GI50 (IGROV-1) was > 100 µM (inactive). For the same molecule, the GI50 (786-0) was > 100 µM (inactive).

`N#Cc1c(NN)nc(NN)c(C#N)c1-c1ccccc1` was tested, and the GI50 (UACC-62) was > 100 µM (inactive), the GI50 (SNB-78) was > 100 µM (inactive) and the GI50 (SK-MEL-2) was > 100 µM (inactive). The GI50 (HCC 2998) was > 100 µM (inactive), the GI50 (UO-31) was > 100 µM (inactive) and the GI50 (COLO 205) was > 100 µM (inactive). The GI50 (OVCAR-4) was > 100 µM (inactive), the GI50 (KM-20L2) was > 100 µM (inactive) and the GI50 (SK-OV-3) was > 100 µM (inactive). The GI50 (DMS-114) was > 100 µM (inactive), the GI50 (LXFL 529) was > 100 µM (inactive) and the GI50 (SN12C) was > 100 µM (inactive). The GI50 (DMS-273) was > 100 µM (inactive), the GI50 (TK-10) was > 100 µM (inactive) and the GI50 (SF-539) was > 100 µM (inactive). The GI50 (HOP-92) was > 100 µM (inactive), the GI50 (HCT-15) was over 100 µM and the GI50 (K562) was > 100 µM (inactive). The GI50 (OVCAR-8) was > 100 µM (inactive), the GI50 (M19-MEL) was > 100 µM (inactive) and the GI50 (CAKI-1) was > 100 µM (inactive). For the same molecule, the GI50 (RPMI-8226) was > 100 µM (inactive), the GI50 (Malme-3M) was > 100 µM (inactive) and the GI50 (SNB-75) was > 100 µM (inactive). The GI50 (LOX IMVI) was > 100 µM (inactive), the GI50 (HOP-62) was > 100 µM (inactive) and the GI50 (MOLT-4) was > 100 µM (inactive). The GI50 (KM12) was > 100 µM (inactive), the GI50 (M14) was > 100 µM (inactive) and the GI50 (SF-295) was > 100 µM (inactive). The GI50 (UACC-257) was > 100 µM (inactive), the GI50 (RXF 631) was > 100 µM (inactive) and the GI50 (OVCAR-5) was > 100 µM (inactive). The GI50 (SNB-19) was > 100 µM (inactive), the GI50 (DLD-1) was > 100 µM (inactive) and the GI50 (A498) was > 100 µM (inactive). For the same molecule, the GI50 (CCRF-CEM) was > 100 µM (inactive), the GI50 (NCI-H23) was > 100 µM (inactive) and the GI50 (XF498) was > 100 µM (inactive). For the same molecule, the GI50 (HCT-116) was > 100 µM (inactive), the GI50 (OVCAR-3) was > 100 µM (inactive) and the GI50 (NCI-H226) was 52.8 µM (inactive). The GI50 (SK-MEL-28) was > 100 µM (inactive), the GI50 (A549) was > 100 µM (inactive) and the GI50 (HL-60) was > 100 µM (inactive). For the same molecule, the GI50 (HT-29) was > 100 µM (inactive), the GI50 (ACHN) was > 100 µM (inactive) and the GI50 (EKVX) was > 100 µM (inactive). For the same molecule, the GI50 (SK-MEL-5) was > 100 µM (inactive), the GI50 (RXF 393) was 96.6 µM (inactive) and the GI50 (SF-268) was > 100 µM (inactive). For the same molecule, the GI50 (HOP-18) was > 100 µM (inactive), the GI50 (SW-620) was > 100 µM (inactive) and the GI50 (NCI-H460) was > 100 µM (inactive). The GI50 (IGROV-1) was > 100 µM (inactive) and the GI50 (786-0) was > 100 µM (inactive).

With `CC(C)(C)[Si](C)(C)OCCCC#CCO` the GI50 (UACC-62) was > 100 µM (inactive), the GI50 (SNB-78) was > 100 µM (inactive) and the GI50 (SK-MEL-2) was > 100 µM (inactive). For the same molecule, the GI50 (HCC 2998) was > 100 µM (inactive), the GI50 (UO-31) was > 100 µM (inactive) and the GI50 (NCI-H522) was > 100 µM (inactive). For the same molecule, the GI50 (COLO 205) was > 100 µM (inactive), the GI50 (OVCAR-4) was > 100 µM (inactive) and the GI50 (KM-20L2) was > 100 µM (inactive). For the same molecule, the GI50 (SK-OV-3) was > 100 µM (inactive), the GI50 (DMS-114) was > 100 µM (inactive) and the GI50 (LXFL 529) was > 100 µM (inactive). The GI50 (SN12C) was > 100 µM (inactive), the GI50 (DMS-273) was > 100 µM (inactive) and the GI50 (TK-10) was > 100 µM (inactive). The GI50 (SF-539) was > 100 µM (inactive), the GI50 (HCT-15) was over 100 µM and the GI50 (K562) was 98.2 µM (inactive). The GI50 (OVCAR-8) was > 100 µM (inactive), the GI50 (CAKI-1) was > 100 µM (inactive) and the GI50 (RPMI-8226) was 64.9 µM (inactive). The GI50 (Malme-3M) was > 100 µM (inactive), the GI50 (SNB-75) was > 100 µM (inactive) and the GI50 (LOX IMVI) was > 100 µM (inactive). The GI50 (MOLT-4) was 92.7 µM (inactive), the GI50 (KM12) was > 100 µM (inactive) and the GI50 (M14) was > 100 µM (inactive). For the same molecule, the GI50 (SF-295) was > 100 µM (inactive), the GI50 (UACC-257) was > 100 µM (inactive) and the GI50 (RXF 631) was > 100 µM (inactive). For the same molecule, the GI50 (OVCAR-5) was > 100 µM (inactive), the GI50 (SNB-19) was > 100 µM (inactive) and the GI50 (DLD-1) was > 100 µM (inactive). The GI50 (A498) was > 100 µM (inactive), the GI50 (CCRF-CEM) was 38.7 µM (inactive) and the GI50 (NCI-H23) was > 100 µM (inactive). For the same molecule, the GI50 (XF498) was > 100 µM (inactive), the GI50 (U-251) was > 100 µM (inactive) and the GI50 (SK-MEL-28) was > 100 µM (inactive). The GI50 (A549) was > 100 µM (inactive), the GI50 (HL-60) was 25.8 µM (inactive) and the GI50 (HT-29) was > 100 µM (inactive). The GI50 (ACHN) was > 100 µM (inactive), the GI50 (EKVX) was > 100 µM (inactive) and the GI50 (SK-MEL-5) was > 100 µM (inactive). The GI50 (RXF 393) was > 100 µM (inactive), the GI50 (SF-268) was > 100 µM (inactive) and the GI50 (HOP-18) was < 0.01 µM (active). The GI50 (SW-620) was > 100 µM (inactive), the GI50 (NCI-H460) was > 100 µM (inactive) and the GI50 (IGROV-1) was > 100 µM (inactive).
